Target: T1, AURKB (Aurora B) (Homo sapiens, UniProt Q96GD4)
T1 construct: purchased Thermo Fisher Scientific (Life Technologies) SelectScreen
Assay: SelectScreen Z'LYTE
Assay type: biochemical
Summary of the method: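 Percent values come from Thermo SelectScreen profiling of NU5455, combining activity and binding assays. CSF1R was run in Z'LYTE format at Km app ATP, and CAMK1 in Adapta format with ATP listed at 10.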

T1 sequence (Q96GD4 whole entry): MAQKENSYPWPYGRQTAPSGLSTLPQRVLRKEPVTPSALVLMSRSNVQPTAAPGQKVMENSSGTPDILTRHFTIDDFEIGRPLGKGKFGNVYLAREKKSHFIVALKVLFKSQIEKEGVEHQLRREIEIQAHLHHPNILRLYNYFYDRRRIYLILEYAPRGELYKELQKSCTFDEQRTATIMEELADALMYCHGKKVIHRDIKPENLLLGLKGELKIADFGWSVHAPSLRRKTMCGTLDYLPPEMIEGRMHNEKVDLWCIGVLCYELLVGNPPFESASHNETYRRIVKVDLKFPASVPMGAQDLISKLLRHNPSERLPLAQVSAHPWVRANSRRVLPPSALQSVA

With `CN(C(=O)CN1CCOCC1)c1ccc2sc3c(-c4cccc5c(=O)cc(N6CC7CCC(C6)O7)oc45)cccc3c2c1` [NU5455] the inhibition at 1 µM was 1.7%.

From article PMC6934184, “Selective DNA-PKcs inhibition extends the therapeutic index of localized radiotherapy and chemotherapy” (The Journal of Clinical Investigation, 2019)
